Reference: US5498522A, “Methods for the use of spermidine/spermine N^1 -acetyltransferase as a prognostic indicator and/or a tumor response marker” (priority 1993, dated 1996)

How the values were obtained:
[1] = tested on: Ebey human melanoma cells; assay: growth of Ebey melanoma cells in-vitro (FIG. 5); assay type: cell-based; details: 10 μM BESPM, 48 hours
Procedure: (§1) As mentioned previously, cells from malignant solid tumor respond to polyamine analog therapy heterotypically. SSAT induction and antitumor response may vary not only among the solid tumor tissue type, but also with the clonal line of tumor of a particular solid tissue type. However, a correlation between the level of induction of SSAT and the potency of antitumor response has been observed in tumors of a particular solid tissue type. For example, seven human melanoma cell lines were assayed in-vitro for their response, as determined by cell growth and level of SSAT induction, to 10 μM BESPM at 48 hours post-treatment. As summarized in FIG. 5, growth among the cell lines decreases as SSAT induction increases.

[2] = tested on: NCI H157 human large cell lung carcinoma cell line; details: cited from earlier work
[3] = tested on: LOX human melanoma cells; assay: growth of LOX melanoma cells in-vitro (FIG. 5); assay type: cell-based; details: 10 μM BESPM, 48 hours
Procedure: as §1

[4] = tested on: cell growth; details: in-vitro; cited from earlier work
[5] = tested on: LOX melanoma cells; assay: N^1 -acetylspermidine in LOX cell cultures; assay type: cell-based, human; details: 10 μm BESPM, 48 hours
Procedure: To illustrate this embodiment, LOX and MALME-3 cell cultures were treated for 48 hours with 10 μm BESPM. The cells from each culture were harvested and assayed for SSAT activity. Media samples were prepared by treating the samples with 50% trichloroacetic acid to give a final concentration of 10% and then centrifuged at 15,000×g for 10 minutes. The supernatant was then filtered through a 0.22-μm filter, extracted with several volumes of ether, lyophilized, and resuspended in 10% trichloroacetic acid. N^1 -acetylspermidine levels of cells and media samples were then measured by use of high-pressure liquid chromatography. […] Similarly, N^1 -acetylspermidine levels from MALME-3 control cells, media from control cell cultures, and treated MALME-3 cells contained minimal levels of N^1 -acetylspermidine.

[6] = tested on: polyamine pools of host tissue; assay: polyamine pools in host tissue of treated mice; assay type: in vivo, mouse; set-up: unit not given here; details: 40 mg/kg
[7] = tested on: SH-1 human melanoma xenografts; assay: antitumor response against SH-1 human melanoma xenografts in mice; assay type: in vivo; details: SH-1, BENSPM at 80 mg/kg
Procedure: (§2) […] where 1 represents length; w--width; and h--height. Tumor sizes were monitored 2 times/week until the median volume (V=0.4(a^2 ×b) where a is the smaller of the two perpendicular tumor diameters). As an indication of drug toxicity, animal weights were also recorded at the time of tumor volume measurement. Statistical analyses were performed on mouse tumor size and weight parameters by using the Mann-Whitney test.
(§3) Tumor growth suppression was measured by plotting the mean tumor volume versus the number of days post-inoculation with polyamine analog (growth curve analyses). Suppression is determined by comparison with the growth of untreated tumors (%T/C). More specifically,: %T/C is (treated tumor volume minus pretreatment volume) divided by (control tumor volume minus pretreatment volume)×100. Typically this is measured either when the control tumor volume reaches 1000 mm^3, or at the last day of treatment.
(§4) Tumor regression is measured as a percentage representing the average percentage of decrease in tumor volume from the largest pretreatment volume value.
(§5) Repression of regrowth is represented as regrowth delay, determined as the number of days following cessation of treatment when median group tumor volume exceeds 200 mm^3 (an arbitrary indication of regrowth which was determined statistically).
For example, human melanoma cell lines including MALME-3, SH-1, PANUT-3 and LOX were evaluated for the level of SSAT induction and potency of antitumor response following BENSPM treatment (80 mg/kg 3×/day×6 days) using the methodology previously described in this embodiment. […] The baseline of SSAT activity in the control mice (2 examined of 7 mice) ranged from 50 to 90 pmol/min/mg. […] Note that following BENSPM treatment (as discussed above in the context of Tables 4 and 5), suppression of tumor growth of PANUT-3, unlike suppression of MALME-3 growth, lasted for only about 12 days. Further, the levels of SSAT in PANUT-3 at two weeks post-treatment, approached the levels in the control and correlated with the loss of antitumor activity.

[8] = tested on: A549 lung adenocarcinoma xenografts; assay: antitumor response against A549 lung adenocarcinoma xenografts in mice; assay type: in vivo, human
Procedure: as §2, §3, §4, §5
Cells from malignant solid human tumor tissue types, other than melanoma, have also been evaluated for their responsiveness to polyamine analog treatment including clonal cell lines A121 (human ovarian adenocarcinoma),A549 (lung adenocarcinoma), and HT29 colon adenocarcinoma). These cell lines were evaluated for the level of SSAT induction and potency of antitumor response following BENSPM treatment (80 mg/kg 3×/day×6 days) in-vivo using the methodology previously described in this embodiment. Also, dose of BENSPM was compared (80 mg/kg versus 40 mg/kg). The baseline of SSAT activity in the control mice (2 of 7 mice) ranged from 40 to 90 pmol/min/mg. Tumor cells from the human xenografts A121, A549, and HT29 were removed from two mice of each treated group of seven mice containing the respective xenograft at 16 hours following the final BENSPM injection to evaluate the level of induction of SSAT activity. […] The response to the polyamine analog was heterotypic. […] As discussed previously, it is not known whether the heterotypic antitumor response may be due to either the individual properties of the clonal line or the particular solid tumor type.

[9] = tested on: polyamine pools of melanoma tumor; assay: polyamine pools in human melanoma xenografts in-vivo; details: for polyamine pools: 16 hours after final injection
[10] = BENSPM (analog) pools in tumor and host tissue; assay type: in vivo, mouse; set-up: BENSPM pool (tissue content): unit not given here
[11] = A549, BENSPM 80 mg/kg 3x/d × 6d
[12] = A549 xenograft, 80 mg/kg 3×/day×6 days
[13] = MALME-3 tumor, 40 mg/kg 3x/day 6 days, 16 hrs post-treatment
[14] = MALME-3 tumor, 40 mg/kg, 2 wks post-treatment

SMILES: CCNCCCNCCCCNCCCNCC [BESPM, N^1,N^12-bis(ethyl)spermine]
- growth inhibition (FIG. 5) [1]: greatest growth inhibition
- cytotoxic response and SSAT induction [2]: associated with a high induction of SSAT
- growth inhibition (FIG. 5) [3]: least growth inhibition
- concentration inhibiting cell growth [4]: 1 to 10 µM
- N^1 -acetylspermidine Extracellular [5]: < 0.1 nmol/culture
- N^1 -acetylspermidine Intracellular [5]: < 0.1 nmol/culture

SMILES: CCNCCCNCCCNCCCNCC [BENSPM, N^1,N^11 -bis(ethyl)norspermine]
- PUT pool ([6]; kidney, 2 wks post-treatment): 20/20
- SPD pool ([6]; kidney, 2 wks post-treatment): 210/210
- SPM pool ([6]; kidney, 2 wks post-treatment): 360/370
- PUT pool ([6]; kidney, 16 hrs post-treatment): 100/40
- SPD pool ([6]; kidney, 16 hrs post-treatment): 100/100
- SPM pool ([6]; kidney, 16 hrs post-treatment): 260/250
- PUT pool ([6]; liver, 2 wks post-treatment): 20/20
- SPD pool ([6]; liver, 2 wks post-treatment): 530/530
- SPM pool ([6]; liver, 2 wks post-treatment): 400/330
- PUT pool ([6]; liver, 16 hrs post-treatment): 90/100
- SPD pool ([6]; liver, 16 hrs post-treatment): 80/90
- SPM pool ([6]; liver, 16 hrs post-treatment): 170/200
- % T/C at 1 g [7]: < 0%
- Tumor Regression [7]: Present
- Regrowth Delay ([7]; dt 15 days): 2.1 × dt
- No Regrowth ([7]; for duration of experiment): 1/5
- % T/C at 1 g [8, 11]: 13%
- Tumor Regression [8, 11]: no measurable tumor regression and None
- Regrowth Delay ([8]; A549, BENSPM 80 mg/kg 3x/d × 6d, dt 10 days): 8.5 × dt
- No Regrowth ([8]; A549, BENSPM 80 mg/kg 3x/d × 6d, for duration of experiment): 2/5
- growth suppression after cessation of treatment [8, 12]: 85 days
- tumor regrowth [8, 12]: minimal tumor regrowth
- PUT pool [9, 13]: 20/20
- SPD pool [9, 13]: 50/20
- SPM pool [9, 13]: 40/30
- N-acetylspermidine level [9, 14]: 240/180
- PUT pool [9, 14]: 370/290
- SPD pool [9, 14]: 560/160
- SPM pool [9, 14]: 200/80
- polyamine pools ([9]; MALME-3 tumor): almost totally depleted
- polyamine pools ([9]; PANUT-3 tumor): almost totally depleted
- BENSPM pool (tissue content) [10, 13]: 1020/1535
- BENSPM pool (tissue content) [10, 14]: 620/470
- BENSPM pool (tissue content) ([10]; kidney, 40 mg/kg, 2 wks post-treatment): 90/150
- BENSPM pool (tissue content) ([10]; kidney, 40 mg/kg, 16 hrs post-treatment): 860/1705
- BENSPM pool (tissue content) ([10]; liver, 40 mg/kg, 2 wks post-treatment): 40/40
- BENSPM pool (tissue content) ([10]; liver, 40 mg/kg, 16 hrs post-treatment): 1180/1470
- metabolite peak of BENSPM ([10]; tumor, kidney and liver, 40 mg/kg, 16 hrs post-treatment): a peak which was similar in height to the SPM peak
